Molecular target: T1, rat mGluR5 receptors (Rattus norvegicus, UniProt P31424)
T1 construct: rat cerebro-cortical membrane preparation was used; from tissue; host or cells: rat cerebral cortex membranes
Assay: mGluR5 receptor binding test, rat cerebro-cortical membrane preparation, [3H]-M-MPEP
Settings: affinity for rat mGluR5 receptors; [3H]-M-MPEP (2 nM) radioligand
In short: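 Radioligand binding used rat cerebro-cortical membranes with 2 nM [3H]-M-MPEP. Nonspecific binding was defined with 10 μM M-MPEP. The method follows a modification of a published procedure.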

T1 sequence (P31424 21-1203): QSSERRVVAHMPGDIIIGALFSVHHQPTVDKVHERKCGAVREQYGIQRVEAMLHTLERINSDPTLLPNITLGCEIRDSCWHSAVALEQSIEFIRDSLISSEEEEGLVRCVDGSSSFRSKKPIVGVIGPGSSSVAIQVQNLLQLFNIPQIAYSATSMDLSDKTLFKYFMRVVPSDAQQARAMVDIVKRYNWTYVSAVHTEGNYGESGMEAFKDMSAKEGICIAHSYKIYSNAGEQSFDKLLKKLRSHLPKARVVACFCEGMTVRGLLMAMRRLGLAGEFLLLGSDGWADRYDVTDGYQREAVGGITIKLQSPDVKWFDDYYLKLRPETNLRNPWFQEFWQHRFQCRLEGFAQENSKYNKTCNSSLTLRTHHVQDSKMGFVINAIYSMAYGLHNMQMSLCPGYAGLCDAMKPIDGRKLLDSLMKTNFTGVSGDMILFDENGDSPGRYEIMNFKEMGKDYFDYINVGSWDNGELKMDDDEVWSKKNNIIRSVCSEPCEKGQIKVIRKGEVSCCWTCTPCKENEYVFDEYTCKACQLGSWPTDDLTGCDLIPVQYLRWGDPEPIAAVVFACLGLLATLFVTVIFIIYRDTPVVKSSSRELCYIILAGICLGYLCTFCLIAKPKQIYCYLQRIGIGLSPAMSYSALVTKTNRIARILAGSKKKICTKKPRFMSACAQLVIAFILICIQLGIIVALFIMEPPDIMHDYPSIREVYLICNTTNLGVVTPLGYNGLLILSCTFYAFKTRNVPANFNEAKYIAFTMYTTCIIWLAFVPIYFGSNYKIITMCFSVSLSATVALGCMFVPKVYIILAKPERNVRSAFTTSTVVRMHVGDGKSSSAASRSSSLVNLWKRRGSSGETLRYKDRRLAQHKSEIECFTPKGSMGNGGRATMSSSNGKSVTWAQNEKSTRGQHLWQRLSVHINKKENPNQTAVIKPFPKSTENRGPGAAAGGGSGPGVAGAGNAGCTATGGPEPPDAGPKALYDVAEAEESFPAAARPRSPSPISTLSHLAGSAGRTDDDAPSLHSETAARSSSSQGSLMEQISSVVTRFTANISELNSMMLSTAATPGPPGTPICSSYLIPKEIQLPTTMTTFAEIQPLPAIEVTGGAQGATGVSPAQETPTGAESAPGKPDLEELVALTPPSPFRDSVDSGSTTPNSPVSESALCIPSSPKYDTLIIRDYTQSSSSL

| Ki [nM] | SMILES |
| --- | --- |
| < 200 | CC1CCN(c2c(S(=O)(=O)c3ccc(F)c(F)c3)cnc3c(F)cccc23)CC1 [Compound 238] |
| < 200 | COc1ccc2ncc(S(=O)(=O)c3cc(Cl)cc(Cl)c3)c(N3CCC(C)CC3)c2c1 [Compound 239] |
| > 500 | COc1ccc2ncc(S(=O)(=O)c3cc(F)cc(F)c3)c(N3CCC(C)CC3)c2c1 [Compound 240] |
| > 500 | COc1ccc2ncc(S(=O)(=O)c3ccc(F)cc3)c(N3CCC(C)CC3)c2c1 [Compound 241] |
| > 500 | COc1ccc2ncc(S(=O)(=O)c3ccc(OC)c(OC)c3)c(N3CCC(C)CC3)c2c1 [Compound 242] |
| 200 to 500 | COc1ccc2ncc(S(=O)(=O)c3cccc(F)c3)c(N3CCC(C)CC3)c2c1 [Compound 243] |
| > 500 | COc1cccc(S(=O)(=O)c2cnc3ccc(OC)cc3c2N2CCC(C)CC2)c1 [Compound 244] |
| > 500 | COc1ccc2ncc(S(=O)(=O)c3ccc(OC)c(Cl)c3)c(N3CCC(C)CC3)c2c1 [Compound 245] |
| > 500 | COc1ccc2ncc(S(=O)(=O)c3cccc(Cl)c3)c(N3CCC(C)CC3)c2c1 [Compound 246] |
| 200 to 500 | COc1ccc2ncc(S(=O)(=O)c3ccc(C)c(F)c3)c(N3CCC(C)CC3)c2c1 [Compound 247] |
| < 200 | COc1ccc2ncc(S(=O)(=O)c3ccc(C)c(Cl)c3)c(N3CCC(C)CC3)c2c1 [Compound 248] |
| < 200 | COc1ccc2ncc(S(=O)(=O)c3ccc(Cl)c(Cl)c3)c(N3CCC(C)CC3)c2c1 [Compound 249] |
| 200 to 500 | COc1ccc2ncc(S(=O)(=O)c3ccc(C)c(C)c3)c(N3CCC(C)CC3)c2c1 [Compound 250] |
| 200 to 500 | CC1CCN(c2c(S(=O)(=O)c3ccc(F)cc3)cnc3ccc(C#N)cc23)CC1 [Compound 252] |
| 200 to 500 | CC1CCN(c2c(S(=O)(=O)c3ccc(Cl)cc3)cnc3c(Cl)ccc(Cl)c23)CC1 [Compound 253] |
| < 200 | Cc1ccc2ncc(S(=O)(=O)c3ccccc3)c(N3CCOCC3)c2c1 [Compound 254] |
| > 500 | Cc1ccc2ncc(S(=O)(=O)c3cc(F)cc(F)c3)c(N3CCOCC3)c2c1 [Compound 255] |
| 200 to 500 | Cc1ccc2ncc(S(=O)(=O)c3cccc(C#N)c3)c(N3CCOCC3)c2c1 [Compound 256] |
| > 500 | Cc1ccc2ncc(S(=O)(=O)c3ccc(F)cc3)c(N3CCOCC3)c2c1 [Compound 257] |
| > 500 | COc1ccc(S(=O)(=O)c2cnc3ccc(C)cc3c2N2CCOCC2)cc1 [Compound 258] |
| > 500 | Cc1ccc2ncc(S(=O)(=O)c3cccc(F)c3)c(N3CCOCC3)c2c1 [Compound 259] |

| Ki [nM] | SMILES |
| --- | --- |
| 200 to 500 | COc1cccc(S(=O)(=O)c2cnc3ccc(C)cc3c2N2CCOCC2)c1 [Compound 260] |
| 200 to 500 | COc1ccc(S(=O)(=O)c2cnc3ccc(C)cc3c2N2CCOCC2)cc1Cl [Compound 261] |
| 200 to 500 | Cc1ccc2ncc(S(=O)(=O)c3ccc(Cl)c(Cl)c3)c(N3CCOCC3)c2c1 [Compound 262] |
| > 500 | Cc1ccc2ncc(S(=O)(=O)c3cccc(Cl)c3)c(N3CCOCC3)c2c1 [Compound 263] |
| 200 to 500 | Cc1ccc2ncc(S(=O)(=O)c3cc(Cl)cc(Cl)c3)c(N3CCOCC3)c2c1 [Compound 264] |
| > 500 | Cc1ccc2ncc(S(=O)(=O)c3ccc(C#N)cc3)c(N3CCOCC3)c2c1 [Compound 265] |
| 200 to 500 | Cc1ccc2ncc(S(=O)(=O)c3ccc(C)c(Cl)c3)c(N3CCOCC3)c2c1 [Compound 266] |
| > 500 | Cc1ccc2ncc(S(=O)(=O)c3ccc(C)c(F)c3)c(N3CCOCC3)c2c1 [Compound 267] |
| > 500 | Cc1ccc2ncc(S(=O)(=O)c3ccc(F)c(F)c3)c(N3CCOCC3)c2c1 [Compound 268] |
| 200 to 500 | COc1ccc2ncc(S(=O)(=O)c3ccccc3)c(N3CCOCC3)c2c1 [Compound 269] |
| < 200 | COc1ccc2ncc(S(=O)(=O)c3ccc(Cl)cc3)c(N3CCOCC3)c2c1 [Compound 270] |
| > 500 | COc1ccc2ncc(S(=O)(=O)c3cc(Cl)cc(Cl)c3)c(N3CCOCC3)c2c1 [Compound 271] |
| > 500 | COc1ccc2ncc(S(=O)(=O)c3cc(F)cc(F)c3)c(N3CCOCC3)c2c1 [Compound 272] |
| > 500 | COc1ccc2ncc(S(=O)(=O)c3cccc(C#N)c3)c(N3CCOCC3)c2c1 [Compound 273] |
| > 500 | COc1ccc2ncc(S(=O)(=O)c3cccc(Cl)c3)c(N3CCOCC3)c2c1 [Compound 274] |
| > 500 | COc1ccc2ncc(S(=O)(=O)c3ccc(F)cc3)c(N3CCOCC3)c2c1 [Compound 275] |
| > 500 | COc1ccc2ncc(S(=O)(=O)c3ccc(C)c(Cl)c3)c(N3CCOCC3)c2c1 [Compound 276] |
| > 500 | COc1ccc2ncc(S(=O)(=O)c3ccc(OC)c(Cl)c3)c(N3CCOCC3)c2c1 [Compound 277] |
| > 500 | COc1ccc2ncc(S(=O)(=O)c3ccc(Cl)c(Cl)c3)c(N3CCOCC3)c2c1 [Compound 278] |
| < 200 | O=S(=O)(c1ccccc1)c1cnc2ccc(F)cc2c1N1CCOCC1 [Compound 279] |
| > 500 | O=S(=O)(c1cc(Cl)cc(Cl)c1)c1cnc2ccc(F)cc2c1N1CCOCC1 [Compound 280] |

| Ki [nM] | SMILES |
| --- | --- |
| > 500 | N#Cc1cccc(S(=O)(=O)c2cnc3ccc(F)cc3c2N2CCOCC2)c1 [Compound 281] |
| > 500 | COc1ccc(S(=O)(=O)c2cnc3ccc(F)cc3c2N2CCOCC2)cc1 [Compound 282] |
| > 500 | COc1cccc(S(=O)(=O)c2cnc3ccc(F)cc3c2N2CCOCC2)c1 [Compound 283] |
| > 500 | COc1ccc(S(=O)(=O)c2cnc3ccc(F)cc3c2N2CCOCC2)cc1Cl [Compound 284] |
| > 500 | O=S(=O)(c1cccc(Cl)c1)c1cnc2ccc(F)cc2c1N1CCOCC1 [Compound 285] |
| 200 to 500 | O=S(=O)(c1ccc(Cl)c(Cl)c1)c1cnc2ccc(F)cc2c1N1CCOCC1 [Compound 286] |
| > 500 | Cc1ccc(S(=O)(=O)c2cnc3ccc(F)cc3c2N2CCOCC2)cc1F [Compound 287] |
| 200 to 500 | Cc1ccc(S(=O)(=O)c2cnc3ccc(F)cc3c2N2CCOCC2)cc1Cl [Compound 288] |
| > 500 | Cc1cc(C)cc(S(=O)(=O)c2cnc3ccc(F)cc3c2N2CCOCC2)c1 [Compound 289] |
| 200 to 500 | O=S(=O)(c1ccc(F)c(Cl)c1)c1cnc2ccc(F)cc2c1N1CCOCC1 [Compound 290] |
| > 500 | O=S(=O)(c1ccccc1)c1cnc2ccc(Cl)cc2c1N1CCOCC1 [Compound 291] |
| < 200 | Cc1ccc(S(=O)(=O)c2cnc3ccc(Cl)cc3c2N2CCOCC2)cc1 [Compound 292] |
| > 500 | O=S(=O)(c1cc(Cl)cc(Cl)c1)c1cnc2ccc(Cl)cc2c1N1CCOCC1 [Compound 293] |
| > 500 | O=S(=O)(c1cc(F)cc(F)c1)c1cnc2ccc(Cl)cc2c1N1CCOCC1 [Compound 294] |
| > 500 | O=S(=O)(c1ccc(Cl)cc1)c1cnc2ccc(Cl)cc2c1N1CCOCC1 [Compound 295] |
| > 500 | COc1cccc(S(=O)(=O)c2cnc3ccc(Cl)cc3c2N2CCOCC2)c1 [Compound 296] |
| > 500 | O=S(=O)(c1cccc(Cl)c1)c1cnc2ccc(Cl)cc2c1N1CCOCC1 [Compound 297] |
| 200 to 500 | O=S(=O)(c1ccc(Cl)c(Cl)c1)c1cnc2ccc(Cl)cc2c1N1CCOCC1 [Compound 298] |
| > 500 | N#Cc1cccc(S(=O)(=O)c2cnc3ccc(Cl)cc3c2N2CCOCC2)c1 [Compound 299] |
| 200 to 500 | Cc1ccc(S(=O)(=O)c2cnc3ccc(Cl)cc3c2N2CCOCC2)cc1Cl [Compound 300] |
| > 500 | COc1ccc(S(=O)(=O)c2cnc3ccc(Cl)cc3c2N2CCOCC2)cc1Cl [Compound 301] |

| Ki [nM] | SMILES |
| --- | --- |
| > 500 | O=S(=O)(c1ccc(F)c(Cl)c1)c1cnc2ccc(Cl)cc2c1N1CCOCC1 [Compound 302] |
| > 500 | Cc1ccc(S(=O)(=O)c2cnc3cc(F)ccc3c2N2CCOCC2)cc1 [Compound 303] |
| > 500 | O=S(=O)(c1ccccc1)c1cnc2cc(F)ccc2c1N1CCOCC1 [Compound 304] |
| > 500 | O=S(=O)(c1ccc(Cl)cc1)c1cnc2cc(F)ccc2c1N1CCOCC1 [Compound 305] |
| 200 to 500 | COc1cccc(S(=O)(=O)c2cnc3cc(F)ccc3c2N2CCOCC2)c1 [Compound 306] |
| 200 to 500 | COc1ccc(S(=O)(=O)c2cnc3cc(F)ccc3c2N2CCOCC2)cc1Cl [Compound 307] |
| 200 to 500 | O=S(=O)(c1cc(Cl)cc(Cl)c1)c1cnc2cc(F)ccc2c1N1CCOCC1 [Compound 308] |
| 200 to 500 | Cc1ccc(S(=O)(=O)c2cnc3cc(F)ccc3c2N2CCOCC2)cc1F [Compound 309] |
| > 500 | O=S(=O)(c1cc(F)cc(F)c1)c1cnc2cc(F)ccc2c1N1CCOCC1 [Compound 310] |
| 200 to 500 | N#Cc1cccc(S(=O)(=O)c2cnc3cc(F)ccc3c2N2CCOCC2)c1 [Compound 311] |
| < 200 | Cc1ccc(S(=O)(=O)c2cnc3cc(F)ccc3c2N2CCOCC2)cc1Cl [Compound 312] |
| > 500 | COc1ccc(S(=O)(=O)c2cnc3cc(F)ccc3c2N2CCOCC2)cc1 [Compound 313] |
| 200 to 500 | Cc1ccc(S(=O)(=O)c2cnc3cc(F)ccc3c2N2CCOCC2)cc1C [Compound 314] |
| 200 to 500 | O=S(=O)(c1ccc(F)c(F)c1)c1cnc2cc(F)ccc2c1N1CCOCC1 [Compound 315] |
| < 200 | O=S(=O)(c1ccc(Cl)c(Cl)c1)c1cnc2cc(F)ccc2c1N1CCOCC1 [Compound 316] |
| 200 to 500 | Cc1cc(C)cc(S(=O)(=O)c2cnc3cc(F)ccc3c2N2CCOCC2)c1 [Compound 317] |
| < 200 | O=S(=O)(c1cc(Cl)cc(Cl)c1)c1cnc2cc(Cl)ccc2c1N1CCOCC1 [Compound 318] |
| 200 to 500 | O=S(=O)(c1cc(F)cc(F)c1)c1cnc2cc(Cl)ccc2c1N1CCOCC1 [Compound 319] |
| 200 to 500 | N#Cc1cccc(S(=O)(=O)c2cnc3cc(Cl)ccc3c2N2CCOCC2)c1 [Compound 320] |
| > 500 | O=S(=O)(c1ccc(F)cc1)c1cnc2cc(Cl)ccc2c1N1CCOCC1 [Compound 321] |

Source: patent US20090270371A1, “QUINOLINE DERIVATIVES USEFUL IN THE TREATMENT OF MGLUR5 RECEPTOR-MEDIATED DISORDERS” (priority 2005, published 2009)
